Results: US20250179061A1 (SIRONAX LTD., priority 2022, published 2025)

Each compound was assayed on HT-29 cells (assay: HT-29 necroptosis cell viability assay (TNF-α/SMAC mimetic/zVAD-FMK, CellTiter-Glo)). Conditions: Homo sapiens, HT-29, HT-29 necroptosis cell viability assay; class symbols for IC50; read-out: Activity.
Assay type: cell-based
In short: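 HT-29 cells (~5,000/well, overnight) in FBS-free McCoy's 5A with TNF-α 10 ng/ml, SMAC mimetic 6 μM and zVAD-FMK 10 μM plus 10-point 1:3 compound titration, 20 h at 37°C. ATP measured by CellTiter-Glo luminescence; IC50 as geometric mean of duplicates.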
CCOC(=O)c1c(C)cn(Cc2ccc(-n3ncn(Cc4c(F)cccc4F)c3=O)cc2F)c1C [Example 208, 1-(4-(4-(2,6-difluorobenzyl)-5-oxo-4,5-dihydro-1H-1,2,4-triazol-1-yl)-2-fluorobenzyl)-2,4-dimethyl-1H-pyrrole-3-carboxylate] was tested, and the IC50 was < 100 nM. N#Cc1ccn(Cc2ccc(-n3ncn(Cc4c(F)cccc4F)c3=O)cc2)n1 [Example 209, 1-(4-(4-(2,6-difluorobenzyl)-5-oxo-4,5-dihydro-1H-1,2,4-triazol-1-yl)benzyl)-1H-pyrazole-3-carbonitrile] was tested, and the IC50 was < 100 nM. Compound COC(=O)c1cn(Cc2ccc(-n3ncn(Cc4c(F)cccc4F)c3=O)cc2F)c(C)n1 [Example 210, methyl 1-(4-(4-(2,6-difluorobenzyl)-5-oxo-4,5-dihydro-1H-1,2,4-triazol-1-yl)-2-fluorobenzyl)-2-methyl-1H-imidazole-4-carboxylate] has an IC50 of 100 to 1000 nM. With O=c1c(Br)cccn1Cc1ccc(-n2ncn(Cc3c(F)cccc3F)c2=O)cc1 [Example 211, 3-bromo-1-(4-(4-(2,6-difluorobenzyl)-5-oxo-4,5-dihydro-1H-1,2,4-triazol-1-yl)benzyl)pyridin-2(1H)-one] the IC50 was 100 to 1000 nM. For Cc1nc(CN2CCCC2)sc1Oc1ccc(-n2ncn(Cc3c(F)cccc3F)c2=O)cc1F [Example 212, 4-(2,6-difluorobenzyl)-2-(3-fluoro-4-((4-methyl-2-(pyrrolidin-1-ylmethyl)thiazol-5-yl)oxy)phenyl)-2,4-dihydro-3H-1,2,4-triazol-3-one], the IC50 was < 100 nM. Cc1cn(Cc2ccc(-n3nc4n(c3=O)C(c3ccccc3)CC4)cc2F)c(C)n1 (stereo not shown) [Example 213, 2-(4-((2,4-dimethyl-1H-imidazol-1-yl)methyl)-3-fluorophenyl)-5-phenyl-2,5,6,7-tetrahydro-3H-pyrrolo[2,1-c][1,2,4]triazol-3-one] was tested, and the IC50 was < 100 nM. Cc1cn(C)c(=O)n1Cc1ccc(-n2ncn(Cc3c(F)cccc3F)c2=O)cc1 [Example 214, 4-(2,6-difluorobenzyl)-2-(4-((3,5-dimethyl-2-oxo-2,3-dihydro-1H-imidazol-1-yl)methyl)phenyl)-2,4-dihydro-3H-1,2,4-triazol-3-one] gave an IC50 of 1000 to 10000 nM. In the case of CCOC(=O)c1nc(C)n(Cc2ccc(-n3ncn(Cc4c(F)cccc4F)c3=O)cc2F)c1C [Example 215, ethyl 1-(4-(4-(2,6-difluorobenzyl)-5-oxo-4,5-dihydro-1H-1,2,4-triazol-1-yl)-2-fluorobenzyl)-2,5-dimethyl-1H-imidazole-4-carboxylate], the IC50 is reported as < 100 nM. Compound Cc1cc(C(=O)O)nn1Cc1ccc(-n2ncn(Cc3c(F)cccc3F)c2=O)cc1F [Example 216, 1-(4-(4-(2,6-difluorobenzyl)-5-oxo-4,5-dihydro-1H-1,2,4-triazol-1-yl)-2-fluorobenzyl)-5-methyl-1H-pyrazole-3-carboxylic acid] has an IC50 of 1000 to 10000 nM. Cc1nc(C(N)=O)c(C)n1Cc1ccc(-n2ncn(Cc3c(F)cccc3F)c2=O)cc1F [Example 217, 1-(4-(4-(2,6-difluorobenzyl)-5-oxo-4,5-dihydro-1H-1,2,4-triazol-1-yl)-2-fluorobenzyl)-2,5-dimethyl-1H-imidazole-4-carboxamide] gave an IC50 of 100 to 1000 nM. Cc1nc(C)n(Cc2ccc(-n3ncn(Cc4c(F)cccc4F)c3=O)cc2F)c1C(N)=O [Example 218, 1-(4-(4-(2,6-difluorobenzyl)-5-oxo-4,5-dihydro-1H-1,2,4-triazol-1-yl)-2-fluorobenzyl)-2,4-dimethyl-1H-imidazole-5-carboxamide] was tested, and the IC50 was 100 to 1000 nM. Cc1cc(C(N)=O)c(C)n1Cc1ccc(-n2ncn(Cc3c(F)cccc3F)c2=O)cc1F [Example 219, 1-(4-(4-(2,6-difluorobenzyl)-5-oxo-4,5-dihydro-1H-1,2,4-triazol-1-yl)-2-fluorobenzyl)-2,5-dimethyl-1H-pyrrole-3-carboxamide] was tested, and the IC50 was < 100 nM. For Cc1nc(CO)cn1Cc1ccc(-n2nc3n(c2=O)C(c2ccccc2)CC3)cc1F (stereo not shown) [Example 220, 2-(3-fluoro-4-((4-(hydroxymethyl)-2-methyl-1H-imidazol-1-yl)methyl)phenyl)-5-phenyl-2,5,6,7-tetrahydro-3H-pyrrolo[2,1-c][1,2,4]triazol-3-one], the IC50 was 100 to 1000 nM. With Cc1cc(CO)n(Cc2ccc(-n3nc4n(c3=O)C(c3ccccc3)CC4)cc2F)n1 (stereo not shown) [Example 221, 2-(3-fluoro-4-((5-(hydroxymethyl)-3-methyl-1H-pyrazol-1-yl)methyl)phenyl)-5-phenyl-2,5,6,7-tetrahydro-3H-pyrrolo[2,1-c][1,2,4]triazol-3-one] the IC50 was 1000 to 10000 nM. For Cc1cn(Cc2ccc(-n3nc4n(c3=O)C(c3ccccc3)CC4)cc2F)c(C)c1C(N)=O (stereo not shown) [Example 222, 1-(2-fluoro-4-(3-oxo-5-phenyl-6,7-dihydro-3H-pyrrolo[2,1-c][1,2,4]triazol-2(5H)-yl)benzyl)-2,4-dimethyl-1H-pyrrole-3-carboxamide], the IC50 was < 100 nM.

Same assay, conditions: Homo sapiens, HT-29, HT-29 necroptosis cell viability, IC50 class symbols; read-out: Activity
Nc1cc(Oc2ccc(-n3ncn(Cc4c(F)cccc4F)c3=O)cc2F)c(F)cn1 [Example 223, 2-(4-((2-amino-5-fluoropyridin-4-yl)oxy)-3-fluorophenyl)-4-(2,6-difluorobenzyl)-2,4-dihydro-3H-1,2,4-triazol-3-one] was tested, and the IC50 was 100 to 1000 nM. With CC1(C#N)CN(c2nccc(Oc3ccc(-n4ncn(Cc5c(F)cccc5F)c4=O)cc3Cl)c2F)C1 [Example 224, 1-(4-(2-chloro-4-(4-(2,6-difluorobenzyl)-5-oxo-4,5-dihydro-1H-1,2,4-triazol-1-yl)phenoxy)-3-fluoropyridin-2-yl)-3-methylazetidine-3-carbonitrile] the IC50 was < 100 nM. In the case of Cc1cnc(N2CC(C)(C#N)C2)nc1Oc1ccc(-n2ncn(Cc3c(F)cccc3F)c2=O)cc1F [Example 225, 1-[4-(4-{4-[(2,6-difluorophenyl)methyl]-5-oxo-1,2,4-triazol-1-yl}-2-fluorophenoxy)-5-methylpyrimidin-2-yl]-3-methylazetidine-3-carbonitrile], the IC50 is reported as 100 to 1000 nM. In the case of CC1(C#N)CN(c2nccc(Oc3ccc(-n4ncn(Cc5c(F)cccc5F)c4=O)cc3F)c2F)C1 [Example 226, 1-(4-(4-(4-(2,6-difluorobenzyl)-5-oxo-4,5-dihydro-1H-1,2,4-triazol-1-yl)-2-fluorophenoxy)-3-fluoropyridin-2-yl)-3-methylazetidine-3-carbonitrile], the IC50 is reported as < 100 nM. Cc1c(Oc2ccc(-n3ncn(Cc4c(F)cccc4F)c3=O)cc2F)ccnc1N1CC(C)(C#N)C1 [Example 227, 1-(4-(4-(4-(2,6-difluorobenzyl)-5-oxo-4,5-dihydro-1H-1,2,4-triazol-1-yl)-2-fluorophenoxy)-3-methylpyridin-2-yl)-3-methylazetidine-3-carbonitrile] was tested, and the IC50 was < 100 nM. Cc1cnc(N2CCC(C)(C#N)C2)cc1Oc1ccc(-n2ncn(Cc3c(F)cccc3F)c2=O)cc1F (stereo not shown) [Example 228, 1-(4-(4-(4-(2,6-difluorobenzyl)-5-oxo-4,5-dihydro-1H-1,2,4-triazol-1-yl)-2-fluorophenoxy)-5-methylpyridin-2-yl)-3-methylpyrrolidine-3-carbonitrile] was tested, and the IC50 was < 100 nM. In the case of COC1(C#N)CN(c2cc(Oc3ccc(-n4ncn(Cc5c(F)cccc5F)c4=O)cc3F)c(F)cn2)C1 [Example 230, 1-(4-(4-(4-(2,6-difluorobenzyl)-5-oxo-4,5-dihydro-1H-1,2,4-triazol-1-yl)-2-fluorophenoxy)-5-fluoropyridin-2-yl)-3-methoxyazetidine-3-carbonitrile], the IC50 is reported as < 100 nM.
